Test results reported in patent US20230372481A1 (priority 2020, published 2023).
Where two headings read alike, the source gives them in different places.

Columns and labels:
[1] = system: CD45RA− memory T cells; assay type: cell-based, human; details: for IFNγ production WITH IL15 X3, CD45RA− / IFNγ production WITH IL15 X3, CD45RA− CD3+ / IFNγ production WITH IL15 X3, CD45RA− CD3+ CD4+ / IFNγ production WITH IL15 X3, CD45RA− CD3+ CD8+ / FOLD INCREASE OF IFNγ PRODUCTION, CD45RA− / FOLD INCREASE OF IFNγ PRODUCTION, CD45RA− CD3+ / FOLD INCREASE OF IFNγ PRODUCTION, CD45RA− CD3+ CD4+ / FOLD INCREASE OF IFNγ PRODUCTION, CD45RA− CD3+ CD8+: three peptivators
[2] = system: CD45RA− memory T cells; assay: Phenotypic characterization of CD45RA− memory T cells in the presence of IL-15 (Table 11); assay type: cell-based, human; details: for Fold change CD127lowCD25+ (Treg): CD45RA−CD4+ subset
[3] = DAY 3 (72 hours) with IL-15 50 ng/ml
[4] = DAY 3, with minus without IL-15, three peptivators
[5] = O/N, with minus without IL-15, three peptivators
[6] = CD3+ subset, IL-15 for 72 hours
[7] = CD4+ subset, IL-15 for 72 hours
[8] = CD8+ subset, IL-15 for 72 hours
[9] = IL-15 72 hours vs control with no cytokine

Question: For “IL15: cytokine fundamental for memory T cells that induces the activation, the proliferation and the survival of T cells”, which “IFNγ production WITH IL15 X3, CD45RA−” value [1, 3] is on record?
Answer: 1.9

Question: What about the “IFNγ production WITH IL15 X3, CD45RA− CD3+” value [1, 3] of the same substance?
Answer: 1.7

Question: And the “IFNγ production WITH IL15 X3, CD45RA− CD3+ CD4+” value [1, 3]?
Answer: 1.5

Question: What about the “IFNγ production WITH IL15 X3, CD45RA− CD3+ CD8+” value [1, 3] of the same substance?
Answer: 2.7

Question: And the “IFNγ production W-WO, CD45RA−” value [1, 4]?
Answer: 1.6

Question: What about the “IFNγ production W-WO, CD45RA− CD3+” value [1, 4] of the same substance?
Answer: 1.4

Question: What about the “IFNγ production W-WO, CD45RA− CD3+ CD4+” value [1, 4] of the same substance?
Answer: 1.1

Question: What about the “IFNγ production W-WO, CD45RA− CD3+ CD8+” value [1, 4] of the same substance?
Answer: 2.4

Question: What about the “FOLD INCREASE OF IFNγ PRODUCTION, CD45RA−” value ([1]; DAY 3 with IL-15 vs without) of the same substance?
Answer: 5.3 fold

Question: And the “FOLD INCREASE OF IFNγ PRODUCTION, CD45RA− CD3+” value ([1]; DAY 3 with IL-15 vs without)?
Answer: 5.8 fold

Question: What about the “FOLD INCREASE OF IFNγ PRODUCTION, CD45RA− CD3+ CD4+” value ([1]; DAY 3 with IL-15 vs without) of the same substance?
Answer: 3.8 fold

Question: What about the “FOLD INCREASE OF IFNγ PRODUCTION, CD45RA− CD3+ CD8+” value ([1]; DAY 3 with IL-15 vs without) of the same substance?
Answer: 11.6 fold

Question: And the “IFNγ production WITH IL15 X3, CD45RA−” value ([1]; O/N with IL-15 50 ng/ml)?
Answer: 3.8

Question: And the “IFNγ production WITH IL15 X3, CD45RA− CD3+” value ([1]; O/N with IL-15 50 ng/ml)?
Answer: 3.8

Question: What about the “IFNγ production WITH IL15 X3, CD45RA− CD3+ CD4+” value ([1]; O/N with IL-15 50 ng/ml) of the same substance?
Answer: 3.8

Question: What about the “IFNγ production WITH IL15 X3, CD45RA− CD3+ CD8+” value ([1]; O/N with IL-15 50 ng/ml) of the same substance?
Answer: 4.6

Question: What about the “FOLD INCREASE OF IFNγ PRODUCTION, CD45RA−” value ([1]; O/N with IL-15 vs without) of the same substance?
Answer: 19.2 fold

Question: And the “FOLD INCREASE OF IFNγ PRODUCTION, CD45RA− CD3+” value ([1]; O/N with IL-15 vs without)?
Answer: 13.6 fold

Question: And the “FOLD INCREASE OF IFNγ PRODUCTION, CD45RA− CD3+ CD4+” value ([1]; O/N with IL-15 vs without)?
Answer: 12.5 fold

Question: What about the “FOLD INCREASE OF IFNγ PRODUCTION, CD45RA− CD3+ CD8+” value ([1]; O/N with IL-15 vs without) of the same substance?
Answer: 14.8 fold

Question: And the “IFNγ production W-WO, CD45RA−” value [1, 5]?
Answer: 3.6

Question: And the “IFNγ production W-WO, CD45RA− CD3+” value [1, 5]?
Answer: 3.5

Question: What about the “IFNγ production W-WO, CD45RA− CD3+ CD4+” value [1, 5] of the same substance?
Answer: 3.5

Question: What about the “IFNγ production W-WO, CD45RA− CD3+ CD8+” value [1, 5] of the same substance?
Answer: 4.3

Question: What about the “% Memory T cells, % CD45RA−” value ([1]; WITH IL15 PEPX3 72 hours) of the same substance?
Answer: 84%

Question: And the “% Memory T cells, % CD45RA−CD3+” value ([1]; WITH IL15 PEPX3 72 hours)?
Answer: 95.1%

Question: And the “% Memory T cells, % CD45RA−CD3+ CD4+” value ([1]; WITH IL15 PEPX3 72 hours)?
Answer: 91.2%

Question: And the “% Memory T cells, % CD45RA−CD3+ CD8+” value ([1]; WITH IL15 PEPX3 72 hours)?
Answer: 3.45%

Question: And the “% Memory T cells, % CD45RA−” value ([1]; WITH IL15 PEPX3 o/n)?
Answer: 97.7%

Question: What about the “% Memory T cells, % CD45RA−CD3+” value ([1]; WITH IL15 PEPX3 o/n) of the same substance?
Answer: 94.9%

Question: And the “% Memory T cells, % CD45RA−CD3+ CD4+” value ([1]; WITH IL15 PEPX3 o/n)?
Answer: 91%

Question: What about the “% Memory T cells, % CD45RA−CD3+ CD8+” value ([1]; WITH IL15 PEPX3 o/n) of the same substance?
Answer: 6.23%

Question: And the “Fold change CD25+ (T cell activation marker)” value (shortened to “Fold change CD25+”) [2, 6]?
Answer: 13.16

Question: And the “Fold change CD69+ (T cell activation marker)” value (“Fold change CD69+” for short) [2, 6]?
Answer: 26

Question: And the “Fold change HLA-DR+ high (T cell activation marker)” value (“Fold change HLA-DR+ high” below) [2, 6]?
Answer: 1.21

Question: What about the “Fold change NKG2A+ (T cell exhaustion marker)” value (from here on “Fold change NKG2A+”) [2, 6] of the same substance?
Answer: 0.77

Question: What about the “Fold change PD1+ high (T cell exhaustion marker)” value (“Fold change PD1+ high” for short) [2, 6] of the same substance?
Answer: 3.43

Question: And the “Fold change CD25+” value ([2]; CD3+ subset, IL-15 o/n)?
Answer: 2.11

Question: What about the “Fold change CD69+” value ([2]; CD3+ subset, IL-15 o/n) of the same substance?
Answer: 3.82

Question: What about the “Fold change HLA-DR+ high” value ([2]; CD3+ subset, IL-15 o/n) of the same substance?
Answer: 1.11

Question: What about the “Fold change NKG2A+” value ([2]; CD3+ subset, IL-15 o/n) of the same substance?
Answer: 0.61

Question: What about the “Fold change PD1+ high” value ([2]; CD3+ subset, IL-15 o/n) of the same substance?
Answer: 1.43

Question: And the “Fold change CD25+” value [2, 7]?
Answer: 9.88

Question: What about the “Fold change CD69+” value [2, 7] of the same substance?
Answer: 27.82

Question: And the “Fold change HLA-DR+ high” value [2, 7]?
Answer: 1.22

Question: And the “Fold change NKG2A+” value [2, 7]?
Answer: 2.67

Question: What about the “Fold change PD1+ high” value [2, 7] of the same substance?
Answer: 3.41

Question: And the “Fold change CD25+” value ([2]; CD4+ subset, IL-15 o/n)?
Answer: 2.12

Question: What about the “Fold change CD69+” value ([2]; CD4+ subset, IL-15 o/n) of the same substance?
Answer: 4.48

Question: And the “Fold change HLA-DR+ high” value ([2]; CD4+ subset, IL-15 o/n)?
Answer: 0.97

Question: What about the “Fold change NKG2A+” value ([2]; CD4+ subset, IL-15 o/n) of the same substance?
Answer: 0.39

Question: What about the “Fold change PD1+ high” value ([2]; CD4+ subset, IL-15 o/n) of the same substance?
Answer: 1.35

Question: And the “Fold change CD25+” value [2, 8]?
Answer: 105

Question: And the “Fold change CD69+” value [2, 8]?
Answer: 6.48

Question: What about the “Fold change HLA-DR+ high” value [2, 8] of the same substance?
Answer: 1.61

Question: What about the “Fold change NKG2A+” value [2, 8] of the same substance?
Answer: 1.23

Question: And the “Fold change PD1+ high” value [2, 8]?
Answer: 2.97

Question: What about the “Fold change CD25+” value ([2]; CD8+ subset, IL-15 o/n) of the same substance?
Answer: 14.27

Question: And the “Fold change CD69+” value ([2]; CD8+ subset, IL-15 o/n)?
Answer: 2.10

Question: And the “Fold change HLA-DR+ high” value ([2]; CD8+ subset, IL-15 o/n)?
Answer: 1.32

Question: And the “Fold change NKG2A+” value ([2]; CD8+ subset, IL-15 o/n)?
Answer: 0.73

Question: And the “Fold change PD1+ high” value ([2]; CD8+ subset, IL-15 o/n)?
Answer: 1.51

Question: What about the “Fold change CD127lowCD25+ (Treg)” value ([2]; IL-15 for 72 hours vs day 0 WO IL15) of the same substance?
Answer: 7.88

Question: What about the “Fold change CD127lowCD25+ (Treg)” value ([2]; IL-15 o/n vs day 0 WO IL15) of the same substance?
Answer: 1.85

Question: What about the “Fold time change of exhaustion marker NKG2A, CD45RA−CD3+ cells” value ([2]; IL-15 72 hours) of the same substance?
Answer: 0.77 fold

Question: And the “Fold time change of exhaustion marker PD-1, CD45RA−CD3+ cells” value ([2]; IL-15 72 hours)?
Answer: 3.43 fold

Question: And the “Fold increase of activation marker CD25, CD45RA− CD3+ cells” value [2, 9]?
Answer: 13.26 fold

Question: What about the “Fold increase of activation marker CD69, CD45RA− CD3+ cells” value [2, 9] of the same substance?
Answer: 26 fold
